# Reference: US20110207751A1, “HETEROCYCLIC COMPOUNDS AND USES AS ANTICANCER AGENTS” (priority 2010, published 2011)
# pIC50: −log10 of the molar value. Where a name gives a salt, the structure may show the parent alone.
# What was measured:
# Experiment in all cases: Inhibition of cell proliferation, xCelligence cell index
# Format in all cases: cell-based
# [1] = system: H292 cells (human pulmonary lung carcinoma cell line); details: NCI-H292, 72 hr post compound treatment, read-out: calculated IC50
# From the text: (§1) The biological activity of compounds disclosed herein was monitored and profiled using the Real-Time Cell Electronic Sensing (RT-CES®) system from ACEA Biosciences, Inc. The RT-CES system utilizes cell-substrate impedance technology to monitor cellular behavior inside tissue culture wells in a microtiter plate format. The technology features in the integration of molecular and cell biology with microelectronics and is based on the electronic detection of biological assay process. The details of this cell electronic sensing technology and associated devices, systems and methods of use are described in U.S. Pat. No. 7,167,585; U.S. Pat. No. 7,468,255; PCT publication number WO 2004/010102; U.S. Pat. No. 7,470,533; and U.S. Pat. No. 7,459,303, each of which is incorporated herein by reference. Additional details of RT-CES technology are further disclosed in U.S. Pat. No. 7,468,255.
# (§2) For measurement of cell-substrate or cell-electrode impedance using RT-CES technology, microelectrodes having appropriate geometries are fabricated onto the bottom surfaces of microtiter plate or similar device, facing into the wells. […] When there are changes to the biological status of the cells analogue electronic readout signals are measured automatically and in real time, and are converted to digital signals for processing and for analysis. In a RT-CES system, a cell index (arbitrary representation of change in impedance) is automatically derived and provided based on measured electrode impedance values. […]
# (§3) To quantify cell status based on the measured cell-electrode impedance, a parameter termed Cell Index is derived. Cell Index is a quantitative measure of the status of the cells in an electrode-containing well. […]
# (§4) H292 cells (human pulmonary lung carcinoma cell line) were seeded into wells of 96 well E-plate devices (Roche) with an initial seeding density of 5000 cells per well and were pre-incubated in incubator under standard cell culture condition for about 24 hours. […] The cell status was monitored prior to and after the compound addition using xCelligence system (Roche). […]
# [2] = system: NCI-H460 cells (human large cell lung carcinoma cell line); details: 72 hr post compound treatment, read-out: calculated IC50
# From the text: as §1, §2, §3
# as §4, with “NCI-H460” for “H292”, “large cell” for “pulmonary”
# [3] = system: H1993 cells (human non-small cell lung cancer cell line); details: NCI-H1993, 72 hr post compound treatment, read-out: calculated IC50
# From the text: (§5) For measurement of cell-substrate or cell-electrode impedance using RT-CES technology, microelectrodes having appropriate geometries are fabricated onto the bottom surfaces of microtiter plate or similar device, facing into the wells. Cells are introduced into the wells of the devices, and make contact to and attach to the electrode surfaces. The presence, absence or change of properties of cells affects the electronic and ionic passage on the electrode sensor surfaces. Measuring the impedance between or among electrodes provides important information about biological status of cells present on the sensors. When there are changes to the biological status of the cells analogue electronic readout signals are measured automatically and in real time, and are converted to digital signals for processing and for analysis. In a RT-CES system, a cell index (arbitrary representation of change in impedance) is automatically derived and provided based on measured electrode impedance values. The cell index obtained for a given well reflects: 1) how many cells are attached to the electrode surfaces in this well; 2) how well cells are attached to the electrode surfaces in this well. […]
# H1993 cells (human non-small cell lung cancer cell line) were seeded into wells of 96 well E-plate devices (Roche) with an initial seeding density of 5000 cells per well and were pre-incubated in incubator under standard cell culture condition for about 24 hours. […] The cell status was monitored prior to and after the compound addition using xCelligence system (Roche). […]
# [4] = system: GTL16 cells (human gastric cancer cell line); details: GTL 16, 72 hr post compound treatment, read-out: calculated IC50
# From the text: as §1
# For measurement of cell-substrate or cell-electrode impedance using RT-CES technology, microelectrodes having appropriate geometries are fabricated onto the bottom surfaces of microtiter plate or similar device, facing into the wells. Cells are introduced into the wells of the devices, and make contact to and attach to the electrode surfaces. The presence, absence or change of properties of cells affects the electronic and ionic passage on the electrode sensor surfaces. Measuring the impedance between or among electrodes provides important information about biological status of cells present on the sensors. When there are changes to the biological status of the cells analogue electronic readout signals are measured automatically and in real time, and are converted to digital signals for processing and for analysis. In a RT-CES system, a cell index (arbitrary representation of change in impedance) is automatically derived and provided based on measured electrode impedance values. […]
# as §3
# [5] = system: HT29 cells (human colon cancer cell line); details: HT-29, 72 hr post compound treatment, read-out: calculated IC50
# From the text: as §1, §2, §3
# as §4, with “HT29” for “H292”, “colon cancer” for “pulmonary lung carcinoma”
# [6] = system: U138MG cells (human brain cancer cell line); details: U138-MG, 72 hr post compound treatment, read-out: calculated IC50
# Experimental: U138MG cells (human brain cancer cell line) were seeded into wells of 96 well E-plate devices (Roche) with an initial seeding density of 5000 cells per well and were pre-incubated in incubator under standard cell culture condition for about 24 hours. […] The cell status was monitored prior to and after the compound addition using xCelligence system (Roche). […]
# [7] = system: U118MG cells (human brain cancer cell line); details: U-118-MG, 72 hr post compound treatment, read-out: calculated IC50
# From the text: as §5
# U118MG cells (human brain cancer cell line) were seeded into wells of 96 well E-plate devices (Roche) with an initial seeding density of 5000 cells per well and were pre-incubated in incubator under standard cell culture condition for about 24 hours. […] The cell status was monitored prior to and after the compound addition using xCelligence system (Roche). […]
# [8] = system: SW1088 cells (human brain cancer cell line); details: 72 hr post compound treatment, read-out: calculated IC50
# From the text: as §5
# SW1088 cells (human brain cancer cell line) were seeded into wells of 96 well E-plate devices (Roche) with an initial seeding density of 5000 cells per well and were pre-incubated in incubator under standard cell culture condition for about 24 hours. […] The cell status was monitored prior to and after the compound addition using xCelligence system (Roche). […]
# [9] = system: B×PC3 cells (human pancreatic cancer cell line); details: 72 hr post compound treatment, read-out: calculated IC50
# From the text: as §1, §2, §3
# as §4, with “B×PC3” for “H292”, “pancreatic cancer” for “pulmonary lung carcinoma”
pIC50 [1],pIC50 [2],pIC50 [3],pIC50 [4],pIC50 [5],pIC50 [6],pIC50 [7],pIC50 [8],pIC50 [9],SMILES
7.97,7.96,7.22,7.17,7.60,8.47,7.88,7.67,8.18,"CCc1ccc(Nc2nc(-c3c(C)nc4sccn34)cs2)cc1 [COMPOUND O, 2-(4-ethylphenyl)amino-4-(6-methylimidazo[2,1-b]thiazol-5-yl)-thiazole monohydrobromide]"
8.59,8.57,8.29,8.99,8.60,7.74,7.91,7.88,8.05,CC(=O)O[C@H]1C(=O)[C@@]2(C)[C@H]([C@H](OC(=O)c3ccccc3)[C@]3(O)C[C@H](OC(=O)[C@H](O)[C@@H](NC(=O)c4ccccc4)c4ccccc4)C(C)=C1C3(C)C)[C@]1(OC(C)=O)CO[C@@H]1C[C@@H]2O [paclitaxel]
8.58,7.98,8.61,8.43,7.90,9.19,8.37,8.30,8.39,CC[C@]1(O)C[C@H]2CN(CCc3c([nH]c4ccccc34)[C@@](C(=O)OC)(c3cc4c(cc3OC)N(C=O)[C@H]3[C@@](O)(C(=O)OC)[C@H](OC(C)=O)[C@]5(CC)C=CCN6CC[C@]43[C@@H]65)C2)C1 [vincristine]
